The test system of experiment [1] is Ovariectomised adult female Sprague Dawley rats. The experiment in a line: Female rat sexual proceptivity test (time investigating male vs female stimulus). Format: in vivo. As to the method:
Ovariectomised adult female Sprague Dawley rats (180-200g, from Charles River) were housed in groups of 6 in a reversed lighting system of 12h light:dark (lights off 7.00-19.00h). Two weeks after ovariectomy they were used for sexual activity tests. The experiments started at least 5h into the dark period.
Tests were carried out in a circular arena of 90cm diameter, surrounded by a 30cm high wall. Two small cages with wire-mesh front (15x15cm) are fixed into the wall such that the front of the cage is «flush» with the wall and the 2 cages are opposite each other. They contained two stimuli animals: an intact sexually experienced male and a receptive female (ovariectomised, primed with 5µg oestradiol benzoate dissolved in corn oil and injected subcutaneously 48 hours before the test and with 0.5 mg of progesterone four hours before the test). Sexually naive test and control animals were used. Forty eight hours before the tests, both the test and control animals were primed with 5µg oestradiol benzoate. For animals used as positive controls, progesterone (0.5mg/0.1ml) was dissolved in corn oil and administered subcutaneously (s.c.), 4h before the test. Test and control animals were introduced one at a time for 10 minute periods into the arena. During the 10min test, the time that the test or positive control animal spent investigating each stimulus animal was noted. The arena was thoroughly cleaned between animals. The position of the male/female stimuli boxes was randomised between animals, in order to avoid place preference. The difference in the percentage of time spent investigating the male minus the female stimuli was calculated, out of the total time spent investigating stimuli animals. […]
Ovariectomised adult female Sprague Dawley rats (180-200g) were housed in groups of 5 in a reversed lighting system of 12h light:dark (lights off 5.00-17.00h). They were used for the experiments at least two weeks after ovariectomy. Forty eight hours before tests, the animals were primed with oestradiol benzoate (5µg/0.1ml in corn oil, s.c.). On day 1, progesterone (0.5mg/0.1ml, in corn oil, s.c.) was administered to one of the groups 4h before tests, as a positive control. […] The test lasted 10 minutes and was carried out as described before. The difference in the percentage of time spent investigating the male minus the female stimuli was calculated, out of the total time spent investigating stimuli animals. Animals were submitted to a test on day 1 and on day 15. […] On day 15 the test took place again, as described for day 1. […]

In experiment [2] the test system is Sprague Dawley male rats. The experiment can be described thus: Sexual behaviour of fluoxetine-induced sexually dysfunctional male rats. Format: in vivo, rat. As to conditions: fluoxetine 20mg/kg i.p. 3 days (vs vehicle+vehicle). As to the method: (§1) Sprague Dawley male rats (Charles River, UK) were kept, 4 rats per cage, in a reversed lighting regime (12:12 hours, lights off at 5.00 h), with free access to food and water. The rats were pre-selected by being presented with a receptive female at 4 days intervals, i.e. every third day (having 2 clear days between presentations) until completing 6-7 trials of baseline determination. The animals showing consistently vigorous behaviour (ejaculatory latencies <300s) were chosen for further experiments. Animals were treated for 3 consecutive days with either vehicle (water) or fluoxetine (20mg/kg, i.p., in a 2ml/kg dosing volume). […] All treatments were administered i.p. in a 1ml/kg volume, 1h before tests.
(§2) For all the sexual behaviour tests, the males were placed in an observation arena (50-60 cm diameter), starting 5 hours into the dark cycle and observed under red illumination. Three to 4 minutes after placing the male in the arena, a receptive female (ovariectomised, bearing a 7 mm Silastic implant of oestradiol benzoate) was introduced to the arena and the following parameters noted: Mount Latency: time (in seconds) taken between introduction of female and first mount. A maximum time of 15 minutes (900 seconds) was allowed, and the test terminated if no mounts were recorded within that time (Figure 16), Ejaculation Latency: time (in seconds) taken from first intromission to ejaculation. A maximum time of 30 minutes (1800 seconds) was given, and the test terminated if ejaculation was not achieved in that time (Figure 17), Percentage of males achieving ejaculation within 30 minutes was calculated (Figure 18).
A one-way ANOVA followed by Dunnett's t test was used to compare the fluoxetine+vehicle group and other groups for mount and ejaculatory latencies. Percentage of animals ejaculating was analysed using a Chi-square test followed by Fisher's test. (*: P<0.05, **: P<0.01, ***: P<0.001; n=15-19).

Experiment [3] relates to Sprague Dawley male rats. The experiment can be described thus: Sexual behaviour of normal (sexually vigorous) male rats. Format: in vivo, rat. As to conditions: Compound (1) 15mg/kg or Fluoxetine 20mg/kg i.p. 1h before tests, vs vehicle. On the procedure:
as §1, with “days” for “trials”, “experiments (n=24).” for “experiments.”, “randomised into three groups. All animals received all three treatments following a latin-square design. Treatments were administered once a week, with a baseline test in between treatments (4” for “treated for 3 consecutive”, “intervals between baseline and test day).” for “with either vehicle (water) or fluoxetine (20mg/kg, i.p., in a 2ml/kg dosing volume).”
as §2, with “11), Intromission Latency: time (in seconds) taken between introduction of female and first intromission (Figure 12), Number of Mounts: to reach ejaculation. When ejaculation was not reached, the number of mounts was not analyzed, Number of Intromissions: to reach ejaculation. When ejaculation was not reached, the number of intromissions was not analyzed (Figure 13 is number of mounts + intromissions),” for “16),”, “14), and Refractory Period: time (in seconds) taken from ejaculation to the first mount” for “17), Percentage”, “the next series of sexual activity. In those animals reaching” for “males achieving”, “the test” for “within 30 minutes”, “terminated at the end of the refractory period, as indicated by the first mount of the next sexual cycle” for “calculated”, “15).” for “18).”
A one-way ANOVA followed by Dunnett's t test was used to compare treated vs vehicle groups each day of testing, for all the sexual behaviour parameters.

The target in another experiment is T1, human GRP receptor (BB2) (Homo sapiens, UniProt P30550).
T1 construct: expressed in transfected cells
T1 sequence (P30550 whole entry): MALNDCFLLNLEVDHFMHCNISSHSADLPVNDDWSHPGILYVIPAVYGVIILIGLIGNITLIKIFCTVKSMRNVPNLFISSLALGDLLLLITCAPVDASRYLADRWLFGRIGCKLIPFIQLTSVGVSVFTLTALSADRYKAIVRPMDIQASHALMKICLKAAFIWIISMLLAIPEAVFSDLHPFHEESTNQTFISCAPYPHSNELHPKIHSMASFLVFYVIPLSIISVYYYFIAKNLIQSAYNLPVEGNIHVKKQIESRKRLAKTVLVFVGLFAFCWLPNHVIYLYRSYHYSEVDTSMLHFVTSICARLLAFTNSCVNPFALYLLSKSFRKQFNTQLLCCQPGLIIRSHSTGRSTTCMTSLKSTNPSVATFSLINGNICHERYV
The experiment can be described thus: BB2 binding assay ([125I][Tyr4]bombesin, CHO-K1 cell membranes). As to the method: In the following experiments, measurement of BB1 and BB2 binding was as follows. […] The final pellet was resuspended in assay buffer to a final cell concentration of 1.5 × 10^5/mL. […] Nonspecific binding was defined by 1µM bombesin. […] Radioactivity bound was determined using a gamma counter.
All competition data was analysed using nonlinear regression utilizing iterative curve-plotting procedures in Prism® (GraphPad Software Inc., San Diego, USA).

The mark [4] stands for this setting: day 4 Compound (1) 15mg/kg or yohimbine 2mg/kg i.p. 1h before tests (vs fluoxetine+vehicle).
[5] abbreviates: Table 7, N-terminal sulfonamide derivatives.

The results in this text go back to patent publication EP1333824B1, “TREATMENT OF SEXUAL DYSFUNCTION WITH BOMBESIN RECEPTOR ANTAGONISTS” (Warner-Lambert Company LLC, priority 2000, dated 2002).

Turning to `CC(=O)[C@H]1CC[C@H]2[C@@H]3CCC4=CC(=O)CC[C@]4(C)[C@H]3CC[C@]12C` [progesterone, reference compound], in experiment [1] (Example 3, Compound (1) 15mg/kg i.p. 1h before test, progesterone 0.5mg/0.1ml s.c. 4h before, vs vehicle, P<0.01), the “proceptivity, day 1” value is reported as “stimulatory effect on proceptivity”. For the same molecule, the “percentage of time spent investigating the male stimulus” value in experiment [1] (Example 5, progesterone 0.5mg/0.1ml s.c. 4h before test, compared to vehicle group) is “increased the percentage of time spent investigating the male stimulus”.
Regarding neuromedin B [NMB, reference compound], in experiment [1] (Example 5, NMB 100ng i.c.v. 10min before tests, P<0.001 vs progesterone), the “proceptivity in progesterone-treated rats” value is “significantly reduced proceptivity”.
As for `CNCCC(Oc1ccc(C(F)(F)F)cc1)c1ccccc1` (stereo not shown) [fluoxetine, reference compound], in the experiment with Sprague Dawley male rats [2] (setting [4]), the Ejaculation latency result is on record as “significantly increased” and the Mount latency result is “significantly increased”. Further, the “percentage of animals ejaculating” value with Sprague Dawley male rats [2] (within 30 minutes, day 4 Compound (1) 15mg/kg or yohimbine 2mg/kg i.p. (vs fluoxetine+vehicle)) is on record as “significantly lower”. Besides, in the experiment on Sprague Dawley male rats [3], the Ejaculation latency entry was “also increased”, the Intromission latency result is “significantly increased”, the Mount latency entry is “significantly increased” and the Refractory period result is given as “also increased”. In addition, in the experiment on Sprague Dawley male rats [3], the “number of mounts and intromissions required to achieve ejaculation” value was “No changes”.
As to `C[C@@](Cc1c[nH]c2ccccc12)(NC(=O)c1cnc2ccccc2n1)C(=O)NCC1(c2ccccn2)CCCCC1` [Example 78, Quinoxaline-2-carboxylic acid {(S)-2-(1H-indol-3-yl)-1-methyl-1-[(1-pyridin-2-yl-cyclohexylmethyl)-carbamoyl]-ethyl}-amide], the 50% inhibitory concentration (IC50) (in general, the concentration that inhibits the measured activity by half) at human GRP receptor (BB2) (Table 3, N-acyl derivatives) is above 10 µM.
As for `C[C@@](Cc1c[nH]c2ccccc12)(NS(=O)(=O)c1ccccc1C#N)C(=O)NCC1(c2ccccn2)CCCCC1` [Example 134, (S)-2-(2-Cyano-benzenesulfonylamino)-3-(1H-indol-3-yl)-2-methyl-N-(1-pyridin-2-yl-cyclohexylmethyl)-propionamide], the IC50 on human GRP receptor (BB2) (setting [5]) was above 10 µM.
As to `C[C@@](Cc1c[nH]c2ccccc12)(NC(=O)c1ccccn1)C(=O)NCC1(c2ccccn2)CCCCC1` [Example 57, Pyridine-2-carboxylic acid {(S)-2-(1H-indol-3-yl)-1-methyl-1-[(1-pyridin-2-yl-cyclohexylmethyl)-carbamoyl]-ethyl}-amide], the 50% inhibitory concentration (IC50) at human GRP receptor (BB2) (Table 3, N-acyl derivatives) is above 10 µM.
Take `C[C@@](Cc1c[nH]c2ccccc12)(NS(=O)(=O)c1ccc(C(F)(F)F)cc1)C(=O)NCC1(c2ccccn2)CCCCC1` [Example 127, (S)-3-(1H-Indol-3-yl)-2-methyl-N-(1-pyridin-2-yl-cyclohexylmethyl)-2-(4-trifluoromethyl-benzenesulfonylamino)-propionamide]: the IC50 at human GRP receptor (BB2) (setting [5]) was above 10 µM.
The same measure, in the same setting: the same measure for `Cc1cc(S(=O)(=O)N[C@@](C)(Cc2c[nH]c3ccccc23)C(=O)NCC2(c3ccccn3)CCCCC2)c(Cl)cc1Cl` [Example 165, (S)-2-(2,4-Dichloro-5-methyl-benzenesulfonylamino)-3-(1H-indol-3-yl)-2-methyl-N-(1-pyridin-2-yl-cyclohexylmethyl)-propionamide]: above 10 µM.
Same read-out and setting: the same measure for `C[C@@](Cc1c[nH]c2ccccc12)(NS(=O)(=O)c1ccc(S(C)(=O)=O)cc1)C(=O)NCC1(c2ccccn2)CCCCC1` [Example 163, (S)-3-(1H-Indol-3-yl)-2-(4-methanesulfonyl-benzenesulfonylamino)-2-methyl-N-(1-pyridin-2-yl-cyclohexylmethyl)-propionamide]: above 10 µM; for `C[C@@](Cc1c[nH]c2ccccc12)(NS(=O)(=O)c1ccc(S(=O)(=O)c2ccccc2)s1)C(=O)NCC1(c2ccccn2)CCCCC1` [Example 150, (S)-2-(5-Benzenesulfonyl-thiophene-2-sulfonylamino)-3-(1H-indol-3-yl)-2-methyl-N-(1-pyridin-2-yl-cyclohexylmethyl)-propionamide]: above 10 µM.
Turning to `C[C@@](Cc1c[nH]c2ccccc12)(NS(=O)(=O)c1c(Cl)cc(Cl)cc1Cl)C(=O)NCC1(c2ccccn2)CCCCC1` [Example 148, (S)-3-(1H-Indol-3-yl)-2-methyl-N-(1-pyridin-2-yl-cyclohexylmethyl)-2-(2,4,6-trichloro-benzenesulfonylamino)-propionamide], the “BB2 IC50” value on human GRP receptor (BB2) (setting [5]) is given as “Ia”.
